# Experimental data: patent publication US20110117008A1, “USE OF AVICINS TO DELIVER THERAPEUTIC AND DIAGNOSTIC AGENTS” (Research Development Foundation, priority 2007, published 2011)
# Entries after “also recorded” stand apart in the source; their conditions may differ. Where a name gives a salt, the structure may show the parent alone. *1 amine or outer side, *2 acyl side, *3 side chain or, on linkers, in order; H or OH if unused. Where a SMILES comes first, the peptide text is derived from it. Bridges are numbered along the chain shown (N, C = ends). Roman numbers before positions name the chains, in order. [ ]: non-standard residue; d: D form. Actinocin(9to1) = Cc1c2oc3c(C)ccc(C(=O)[*:1])c3nc-2c(C(=O)[*:2])c(N)c1=O; NMeV = CN[C@H](C(=O)O)C(C)C; Sar = CNCC(=O)O
# Key:
# [1] = system: full thickness porcine skin; assay: 3H-estradiol transport and percutaneous absorption, full thickness porcine skin, side by side diffusion cells; format: in vitro ADME, pig; conditions: 3H-estradiol in PBS; F094 5-20 mg/ml, Avicin D and Avicin G 1 mg/ml; 24 hours
# Description: Each solution was loaded with 5 μCi/ml of 3H-Estradiol (Amersham TRK 322). Receiver compartments were sampled at 0.5 1, 2, 3, 6, 12, 18 and 24 hours.
# Likewise, Avicin D and Avicin G solutions contained 1 mg/ml of Avicin D and G respectively, along with PBS and 3H-estradiol (5 μCi/ml).
# (§1) Upon receipt, concentrated stock solutions were made in DMSO.
# [2] = system: full thickness porcine skin; assay: Tritiated water transport through full thickness porcine skin, side by side diffusion cells, scintillation counting; format: in vitro ADME, pig; conditions: tritiated water in PBS, F094 10 mg/ml, Avicin D and Avicin G 1 mg/ml, 24 hours
# Description: In addition, it was desired to access if the known enhancer N-Methyl Pyrrolidinone (NMP) might modulate skin's water permeability when codelivered. […] Each donor compartment solution was loaded with 5 μCi/ml (1 μg/ml) of tritiated (^3H) water. Receiver compartments were sampled at 0.5, 1, 2, 3, 6, 12, 18 and 24 hours.
# Likewise, Avicin D and Avicin G solutions contained 1 mg/ml of Avicin D and G respectively, along with PBS and tritiated water (1 μg/ml, 5 μCi/ml).
# as §1
# [3] = cited from earlier work
# [4] = adults with previously untreated chronic myelogenous leukemia; cited from earlier work
# [5] = system: full thickness pig skin; assay: Water soluble anesthetic transport in full thickness pig skin, HPLC quantification; conditions: for Maximum % Enhancement over control: highest enhancement of the anesthetic's permeability with F094
# From the text: (§2) HPLC was used to quantify delivered mass, and to calculate permabilities in lag times. Error bar represents mean+/−standard deviation.
# as §2
# [6] = Partition coefficient of anesthetics between octanol and water, HPLC; format: physicochemical; conditions: for Partition coefficient (octanol/water): as listed in Table 4; for Partition Coefficient: octanol/water
# [7] = cited from earlier work; remark: listed apart in the source
structure (smiles),measurement,setting,value
C=C[C@](C)(O)CC/C=C(\CO)C(=O)O[C@H]1[C@H](O)[C@@H](O)[C@H](O[C@@](C)(C=C)CC/C=C(\CO)C(=O)O[C@H]2C[C@]3(C(=O)O[C@@H]4O[C@H](CO)[C@@H](O)[C@H](O)[C@H]4O[C@@H]4O[C@@H](C)[C@H](O[C@@H]5O[C@@H](CO)[C@H](O)[C@H]5O)[C@@H](O[C@@H]5O[C@H](CO)[C@@H](O)[C@H](O)[C@H]5O)[C@H]4O)[C@H](O)C[C@]4(C)C(=CC[C@@H]5[C@@]6(C)CC[C@H](O[C@@H]7O[C@H](CO[C@@H]8O[C@H](C)[C@H](O)[C@H](O)[C@H]8O[C@@H]8OC[C@@H](O)[C@H](O)[C@H]8O)[C@@H](O)[C@H](O)[C@H]7NC(C)=O)C(C)(C)[C@@H]6CC[C@]54C)[C@@H]3CC2(C)C)O[C@@H]1C [Avicin D],effect on estradiol transport / estradiol permeability of skin,[1],potent enhancer of water and estradiol permeability through the skin; also recorded: increase estradiol permeability of skin as compared to Avicin G
same,effect on water transport / water permeability of skin,[2],potent enhancer of water and estradiol permeability through the skin; also recorded: increases water permeability of skin as compared to Avicin G
same,effect on water transport / water permeability of skin,[2]; listed as avicin D,differentially enhance water permeability
"O=C(O)CCCc1ccc(N(CCCl)CCCl)cc1 [Chlorambucil, 4-[bis(2-chlorethyl)amino]benzenebutanoic acid]",oral / gastrointestinal absorption,"[3]; in vivo, po",rapidly and completely absorbed from the gastrointestinal tract
same,terminal half-life,[3]; plasma,~1.5 h
N.N.[Cl][Pt][Cl] [Cisplatin],oral / gastrointestinal absorption,"[3]; in vivo, po",not absorbed orally
"CC[C@]1(O)C[C@@H]2CN(CCc3c([nH]c4ccccc34)[C@@](C(=O)OC)(c3cc4c(cc3OC)N(C)[C@H]3[C@@](O)(C(=O)OC)[C@H](OC(C)=O)[C@]5(CC)C=CCN6CC[C@]43[C@@H]65)C2)C1 [vinblastine, Vinblastine]",plasma half-life after distribution (first),[3]; after intravenous injection,approximately 1 hours
same,plasma half-life after distribution (second),[3]; after intravenous injection,~72000 s
same,oral / gastrointestinal absorption,"[3]; in vivo, po",Unpredictable absorption
COc1cccc2c1C(=O)c1c(O)c3c(c(O)c1C2=O)C[C@@](O)(C(C)=O)C[C@@H]3O[C@H]1C[C@H](N)[C@H](O)[C@H](C)O1 [Daunorubicin],oral / gastrointestinal absorption,"[3]; in vivo, po",Oral absorption is poor
"CS(=O)(=O)OCCCCOS(C)(=O)=O [Busulfan, 1,4-butanediol dimethanesulfonate]",hematologic remission with regression or stabilization of organomegaly,[4],Approximately 90%
C=C[C@](C)(O)CC/C=C(\C)C(=O)O[C@H]1[C@H](O)[C@@H](O)[C@H](O[C@@](C)(C=C)CC/C=C(\CO)C(=O)O[C@H]2C[C@]3(C(=O)O[C@@H]4O[C@H](CO)[C@@H](O)[C@H](O)[C@H]4O[C@@H]4O[C@@H](C)[C@H](O[C@@H]5O[C@@H](CO)[C@H](O)[C@H]5O)[C@@H](O[C@@H]5O[C@H](CO)[C@@H](O)[C@H](O)[C@H]5O)[C@H]4O)[C@H](O)C[C@]4(C)C(=CC[C@@H]5[C@@]6(C)CC[C@H](O[C@@H]7O[C@H](CO[C@@H]8O[C@H](C)[C@H](O)[C@H](O)[C@H]8O[C@@H]8OC[C@@H](O)[C@H](O)[C@H]8O)[C@@H](O)[C@H](O)[C@H]7NC(C)=O)C(C)(C)[C@@H]6CC[C@]54C)[C@@H]3CC2(C)C)O[C@@H]1C [Avicin G],effect on water transport / water permeability of skin,[2],inhibits water transport in comparison to Avicin D; also recorded: differentially enhance water permeability
"CC[C@]1(O)C[C@H]2CN(CCc3c([nH]c4ccccc34)[C@@](C(=O)OC)(c3cc4c(cc3OC)N(C=O)[C@H]3[C@@](O)(C(=O)OC)[C@H](OC(C)=O)[C@]5(CC)C=CCN6CC[C@]43[C@@H]65)C2)C1 [vincristine, Vincristine]",oral / gastrointestinal absorption,"[3]; in vivo, po",Unpredictable absorption
CCCCN1CCCCC1C(=O)Nc1c(C)cccc1C (stereo not drawn) [Bupivacaine HCl],Permeability,[5],0.71 ± 0.05 × 10^−3 (cm/hr)
same,Lag time,"[5]; female, pig",10.8 ± 1.1 h
same,Maximum % Enhancement over control,[5],347%
same,Partition coefficient (octanol/water),[6],1.7
same,Partition Coefficient,[6]; 0 mg/ml F094,3.3 ± 0.4
same,Partition Coefficient,[6]; 1 mg/ml F094,3.6 ± 0.5
same,Partition Coefficient,[6]; 5 mg/ml F094,4.1 ± 0.3
same,Partition Coefficient,[6]; 10 mg/ml F094,3.5 ± 0.8
CCCNC(C)C(=O)Nc1ccccc1C (stereo not drawn) [Prilocaine HCl],Permeability,[5],0.46 ± 0.11 × 10^−3 (cm/hr)
same,Maximum % Enhancement over control,[5],228%
same,Partition coefficient (octanol/water),[6],0.43
same,Partition Coefficient,[6]; 0 mg/ml F094,0.47 ± 0.03
same,Partition Coefficient,[6]; 1 mg/ml F094,0.43 ± 0.02
same,Partition Coefficient,[6]; 5 mg/ml F094,0.51 ± 0.02
same,Partition Coefficient,[6]; 10 mg/ml F094,0.50 ± 0.01
"COc1cccc2c1C(=O)c1c(O)c3c(c(O)c1C2=O)C[C@@](O)(C(=O)CO)C[C@@H]3O[C@H]1C[C@H](N)[C@H](O)[C@H](C)O1 [Doxorubicin, 5,12-Naphthacenedione, (8s-cis)-10-[(3-amino-2,3,6-trideoxy-a-L-lyxo-hexopyranosyl)oxy]-7,8,9,10-tetrahydro-6,8,11-trihydroxy-8-(hydroxyacetyl)-1-methoxy-hydrochloride]",oral / gastrointestinal absorption,"[3]; in vivo, po",absorbed poorly
"CC[C@@]1(O)C(=O)OCc2c1cc1n(c2=O)Cc2cc3ccccc3nc2-1 [camptothecin, Camptothecin]",solubility in water,[7],poor water-solubility
same,storage stability,"[7]; stored at 2-8° C. in a dry, airtight, light-resistant environment",stable for at least two years
"O=NN(CCCl)C(=O)NC1CCCCC1 [Lomustine, 1-(2-chloro-ethyl)-3-cyclohexyl-1 nitrosourea]",radioactivity excreted in the form of degradation products,"[3]; in vivo, po",about half
"Cc1c2oc3c(C)ccc(C(=O)N[C@@H]4C(=O)N[C@H](C(C)C)C(=O)N5CCC[C@H]5C(=O)N(C)CC(=O)N(C)[C@@H](C(C)C)C(=O)O[C@@H]4C)c3nc-2c(C(=O)N[C@@H]2C(=O)N[C@H](C(C)C)C(=O)N3CCC[C@H]3C(=O)N(C)CC(=O)N(C)[C@@H](C(C)C)C(=O)O[C@@H]2C)c(N)c1=O [Actinomycin D] (I: T[dV]P[Sar][NMeV] / II: T[dV]P[Sar][NMeV]; ester I:1-I:C, II:1-II:C; linker I:N-II:N via Actinocin(9to1))",share of the dose excreted intact into the bile,[3]; in vivo,Half of the dose
